Source: patent publication US5149648A, “Enzymes employed for producing pulps” (Kabushiki Kaisha Kobe Seiko Sho, priority 1989, dated 1992)
Read-outs that look alike come from different tables or passages of the source.

How the values were obtained:
F-1 = format: biochemical, NK-1148 strain
Method: (§1) The results of measuring enzyme activities of the enzymes of this invention (F-1, F-2 and F-3) after adding each of various substances are as follows.
(§2) 20 μl of the enzyme of this invention is made to react with a reaction solution consisting of 10 μl of a 10 mM syringylglycerol-β-syringylether solution which contains a small amount of dioxane and 720 μl of a 50 mM acetate buffer solution (pH 5.0) and increases of absorbance at 300 nm are measured.
(§3) Enzyme activity producing a 0.01 increase of absorbance during one minute is supposed to be one unit.

F-2 = format: biochemical, NK-1148 strain
Method: as §1, §2, §3

F-3 = format: biochemical, NK-1148 strain
Method: as §1, §2, §3

[1] = tested on: NK-1148 strain (FERM BP-1859); assay: Effect of lignin-related substances on the enzyme production; format: cell-based; conditions: 0.2% of substance added after 7 days culture, further cultured at 28° C. for one day
Method: as §2, §3
After 100 ml of a medium of the same composition as that used in Example 3 was placed in a 500 ml Erlenmeyer flask and sterilized at 120° C. for 15 minutes, NK-1148 strain (FERM BP-1859) was inoculated into the medium and cultured at 28° C. for 7 days.

[2] = substance added at 1 mM, no addition = 100%
[3] = substance added at 0.5 mM, no addition = 100%

SMILES | Relative Activity F-1 (F-1; [2]) | Relative Activity F-2 (F-2; [2]) | Relative Activity F-3 (F-3; [2]) | further results
[Cl][Hg][Cl] [HgCl2] | 11% | 21% | 18% | –
[Cl-].[Cl-].[Co+2] [CoCl2] | 97% | 94% | 96% | –
N[C@@H](CS)C(=O)O [Cysteine] | 11% | 21% | 13% | –
[Ca+2].[Cl-].[Cl-] [CaCl2] | 94% | 95% | 95% | –
[Cl-].[Cl-].[Mg+2] [MgCl2] | 94% | 94% | 95% | –
COc1ccc(CO)cc1OC [Veratryl alcohol, veratryl alcohol] | – | – | – | Enzymatic activity [1]: 0.05 Unit/ml
[Ba+2].[Cl-].[Cl-] [BaCl2] | 93% | 95% | 95% | –
[Cl][Al]([Cl])[Cl] [AlCl3] | 61% | 65% | 65% | –
[Cl][Mn][Cl] [MnCl2] | 95% | 95% | 95% | –
OCCS [2-Mercapto-ethanol] | 10% | 19% | 15% | –
COc1cc(CO)cc(OC)c1O [Syringyl alcohol, syringyl alcohol] | – | – | – | Enzymatic activity [1]: 4.0 Unit/ml
O=C(O)CN(CCN(CC(=O)O)CC(=O)O)CC(=O)O [EDTA] | – | – | – | Relative Activity F-1 (F-1; pH 5, 1000 µM): 98; Relative Activity F-2 (F-2; pH 5, 1000 µM): 102; Relative Activity F-3 (F-3; pH 5, 1000 µM): 101
COc1cc(C(O)C(CO)Oc2c(OC)cccc2OC)cc(OC)c1O (stereo not drawn) [Syringylglycerol-β-syringylether, syringylglycerol-β-syringylether] | – | – | – | Enzymatic activity [1]: 3.9 Unit/ml
[Cl-].[Cl-].[Zn+2] [ZnCl3] | 94% | 93% | 94% | –
[Cl][Cu][Cl] [CuCl2] | 102% | 92% | 100% | –
COc1cc(CO)ccc1O [Vanillyl alcohol, vanillyl alcohol] | – | – | – | Enzymatic activity [1]: 3.95 Unit/ml
[Cl][Fe]([Cl])[Cl] [FeCl3] | – | – | – | Relative Activity F-1 (F-1; [3]): 15%; Relative Activity F-2 (F-2; [3]): 31%; Relative Activity F-3 (F-3; [3]): 25%
CCCCCCCCCCCCOS(=O)(=O)[O-].[Na+] [SDS, sodium dodecyl sulfate] | 106% | 101% | 103% | –
[N-]=[N+]=[N-].[Na+] [NaN3] | 14% | 23% | 20% | –
OCc1ccccc1 [Benzyl alcohol, benzyl alcohol] | – | – | – | Enzymatic activity [1]: 0.01 Unit/ml
